Series [1] relates to E. coli ATCC 25922. In words: Microscopy-based AST (MAST): cell morphology at the MIC. The following applies: MAST, 2-hour incubation.
For series [2] the following is noted: in vivo; cited from earlier work.
Series [3] relates to carbapenem-resistant Klebsiella pneumoniae clinical isolates (blaKPC). In words: DDM (digital dispensing method) MIC testing of CRE isolates. It is filed as cell-based. The following applies: for MIC: Klebsiella pneumoniae, read-out: DDM modal MICs. As to the method:
(§1) Bacterial strains: The 10 de-identified CRE clinical isolates used in the study were collected at our institution under Institutional Review Board-approved protocols and were sequenced through the carbapenem-resistant Enterobacteriaceae genome initiative at the Broad Institute (Cambridge, MA). All contained a Klebsiella pneumoniae carbapenemase (blaKPC) gene and were colony-purified, minimally passaged, and stored at -80° C. prior to use in this study.
(§2) After incubation, bacterial growth was quantified by measurement of OD600 using an Epoch (BioTek, Winooski, VT) or Spark 10 M microplate reader (Tecan, Morrisville, NC). An OD600 reading of 0.08 or greater (approximately twice typical background readings in wells containing broth alone) was considered indicative of bacterial growth (as also appreciable by visual assessment).
(§3) Precision and accuracy. […] Modal DDM MICs were calculated by taking the mode of all DDM MIC measurements obtained for a given antibiotic-strain combination, inclusive of initial MIC titrations and single-antibiotic rows/columns in synergy arrays (Table 5).

Series [4] has as its system carbapenem-resistant Escherichia coli clinical isolates (blaKPC). Described as above. The format is cell-based. The following applies: for MIC: Escherichia coli, read-out: DDM modal MICs. On the procedure: as §1, §2, §3
In series [5] the test system is eighty de-identified Enterobacteriaceae clinical isolates. The experiment in a line: organism not typed. The following applies: eighty clinical isolates; reference microdilution; CLSI criteria, EUCAST for colistin. The format is cell-based. On the procedure: K. pneumonia BIDMC12A is a previously described, carbapenem resistant clinical isolate (14) expressing a KPC-3 carbapenemase. The eighty de-identified Enterobacteriaceae clinical isolates (Table 1) used for verification studies were collected at our institution under IRB-approved protocols. All strains were minimally passaged and stored at -80° C. prior to use in this study.
Verification study: Digital dispensing and reference method testing were performed in parallel using the same inoculum preparation. Microdilution reference panels were pre-prepared and stored at -80° C. until use (less than 2 weeks). D300 test method panels were prepared fresh each day of use.
Accuracy was evaluated using established guidelines (16, 17). The MIC determined by the digital dispensing method was compared with the MIC determined by the broth microdilution reference method. Essential agreement, overall essential agreement, and categorical agreement were evaluated as described in the precision study.
(In general: Broth dilution looks for growth in wells or tubes with falling amounts of substance.)

Another series concerns S. aureus. The experiment in a line: Automated microscopy cell counting at inhibitory and sub-inhibitory antibiotic concentrations. The following applies: 4 hours. It is filed as cell-based, Staphylococcus aureus. As to the method:
We performed preliminary automated imaging experiments on the Cell Observer microscope (Zeiss, Oberkochen, Germany) (37° C., 640x magnification, DIC). For these experiments, we utilized E. coli ATCC 25922 and S. aureus ATCC 25923 (FIG. 5), prototypical Gram-negative and Gram-positive pathogens. […] Therefore, we conducted automated imaging of the center of 20 wells using 20-50 z-slices of approximately 1 µm thickness. Each image represented approximately 43,500 µm^2. After collapsing z-slices into a single image per well, cells were readily detectable and distributed evenly throughout the field at a density of 10-30 cells per 1000 µm^2 in all wells evaluated.
As proof of concept and preliminary data for image analysis-based direct cell counting, we utilized a machine learning algorithm (Trainable Weka as contained within the Fiji implementation of ImageJ) (Schindelin et al., Nature Methods 9:676-682 (2012)). A training set of 200 manually segmented S. aureus cells was used to establish a model for cell detection. This model accepts raw image data as input (FIG. 7A), classifies each pixel of an image as containing “cells” or “background” resulting in a segmented image (FIG. 7B). The segmented image is then converted to a black and white binary format. A watershed algorithm refines the segmentation by defining borders where two or more cells are in contact with one another and prevents later erroneous single counting of these otherwise fused objects (FIG. 7C). The particle analysis function of ImageJ is then used to identify particles >0.25 µm^2 as individual bacteria (FIG. 7D). Identified bacteria are subsequently counted and their aggregate surface area calculated.
Using our cell counting model, we compared images of S. aureus grown on inhibitory and sub-inhibitory concentrations of antibiotics. […] At the same time point we observed that E. coli cells in wells with sub-inhibitory concentrations of antimicrobial formed large microcolonies, making analysis of individual cells difficult. In cases where individual cells could not be segmented, a machine learning algorithm similar to that outlined in (d) reliably quantifies relative cell coverage in each field.

Series [6] has as its system E. coli ATCC 25922. The experiment in a line: MIC testing by broth microdilution and D300 digital dispensing (precision study). The following applies: Escherichia coli, ATCC25922, read-out: reference MIC.
Series [7] concerns E. coli ATCC 25922. The following applies: CLSI quality control range; cited from earlier work.
A further series deals with P. mirabilis ATCC 702. The experiment in a line: MIC testing by broth microdilution and D300 digital dispensing (precision study). The following applies: Proteus mirabilis, ATCC702, read-out: reference MIC.

In brackets after ≈: the same amount, converted by molar mass. Like-named read-outs stand apart in the source and are kept apart here.

Turning to `O=C(O)c1cn(C2CC2)c2cc(N3CCNCC3)c(F)cc2c1=O` [Ciprofloxacin (CIP), Ciprofloxacin], the “cell morphology at the MIC” value in the series on E. coli ATCC 25922 [1] is “elongated cells that failed to divide”.

Take `CN(C)c1cc(NC(=O)CNC(C)(C)C)c(O)c2c1C[C@H]1C[C@H]3[C@H](N(C)C)C(O)=C(C(N)=O)C(=O)[C@@]3(O)C(O)=C1C2=O` [tigecycline]: in series [2], the side effects entry was “significant rates of nausea and vomiting”; the urinary excretion result is “limited urinary excretion”.

Regarding `CO[C@H]1/C=C/O[C@@]2(C)Oc3c(C)c(O)c4c(O)c(c(/C=N/N5CCN(C)CC5)c(O)c4c3C2=O)NC(=O)/C(C)=C\C=C\[C@H](C)[C@H](O)[C@@H](C)[C@@H](O)[C@@H](C)[C@H](OC(C)=O)[C@@H]1C` [RIF, rifampin], the MIC in series [3] (BIDMC 4, KPN, KPC type 3) is 32 µg/mL; in series [3] (BIDMC 5, KPN, KPC type 3) it was 32 µg/mL; in [3] (BIDMC 10, KPN, KPC type 3), 32 µg/mL; in series [3] (BIDMC 12A, KPN, KPC type 3), 32 µg/mL; in [3] (BIDMC 18A, KPN, KPC type 2), 16 µg/mL; in series [4] (BIDMC 6, ECO, KPC type 2), 16 µg/mL. Also, the MIC in [4] (BIDMC 9, ECO, KPC type 2) is 16 µg/mL; in [4] (BIDMC 15, ECO, KPC type 2), 32 µg/mL; in series [4] (BIDMC 17A, ECO, KPC type 2) it was 32 µg/mL; in [4] (BIDMC 20A, ECO, KPC type 3), 16 µg/mL.

For the compound `CC1(C)S[C@@H]2[C@H](NC(=O)[C@H](N)c3ccccc3)C(=O)N2[C@H]1C(=O)O` [Ampicillin (AMP), Ampicillin], in series [5], the “Non-susceptible strains (%)” value was 81.3% and the Non-susceptible strains n was found to be 65. Besides, in the series on S. aureus (0.5 × the MIC), the “area occupied by cells” value came to 555 µm^2 and the cells detected came out at 242 cells. Further, the “reduction of cell numbers at the MIC vs 0.5 × the MIC” value in the series on S. aureus was found to be 5 fold. Also, in the series with S. aureus (at the MIC), the “area occupied by cells” value was 47 µm^2 and the cells detected worked out at 51 cells.

For the compound `O=C(N[C@H](CO)[C@H](O)c1ccc([N+](=O)[O-])cc1)C(Cl)Cl` [CHL, chloramphenicol], the MIC in [3] (BIDMC 10, KPN, KPC type 3) was greater than 64 µg/mL; in series [3] (BIDMC 12A, KPN, KPC type 3) it was 64 µg/mL; in series [4] (BIDMC 6, ECO, KPC type 2), 8 µg/mL; in series [4] (BIDMC 9, ECO, KPC type 2) it was 8 µg/mL; in series [4] (BIDMC 15, ECO, KPC type 2) it was 8 µg/mL; in series [4] (BIDMC 17A, ECO, KPC type 2), 8 µg/mL. The MIC in series [4] (BIDMC 20A, ECO, KPC type 3) stood at 16 µg/mL.

For `C[C@@H]1O[C@@H]1P(=O)(O)O` [FOF, fosfomycin], the MIC in series [3] (BIDMC 4, KPN, KPC type 3) worked out at 128 µg/mL; in [3] (BIDMC 5, KPN, KPC type 3), 8 µg/mL; in series [3] (BIDMC 10, KPN, KPC type 3), 64 µg/mL; in series [3] (BIDMC 12A, KPN, KPC type 3) it was 8 µg/mL; in series [3] (BIDMC 18A, KPN, KPC type 2), 4 µg/mL; in series [4] (BIDMC 6, ECO, KPC type 2), 0.5 µg/mL. In addition, the MIC in series [4] (BIDMC 9, ECO, KPC type 2) turned out to be 0.5 µg/mL; in series [4] (BIDMC 15, ECO, KPC type 2), 0.5 µg/mL; in [4] (BIDMC 17A, ECO, KPC type 2), 0.5 µg/mL; in series [4] (BIDMC 20A, ECO, KPC type 3), 1 µg/mL.

In the case of `C[C@H]1COc2c(N3CCN(C)CC3)c(F)cc3c(=O)c(C(=O)O)cn1c23` [LVX, levofloxacin], the MIC in series [3] (BIDMC 4, KPN, KPC type 3) was 128 µg/mL; in [3] (BIDMC 5, KPN, KPC type 3), greater than 64 µg/mL; in series [3] (BIDMC 10, KPN, KPC type 3) it was 16 µg/mL; in [3] (BIDMC 12A, KPN, KPC type 3), 32 µg/mL; in [3] (BIDMC 18A, KPN, KPC type 2), 64 µg/mL; in series [4] (BIDMC 6, ECO, KPC type 2), 16 µg/mL. Moreover, the MIC in series [4] (BIDMC 9, ECO, KPC type 2) was 16 µg/mL; in series [4] (BIDMC 15, ECO, KPC type 2), 32 µg/mL; in series [4] (BIDMC 17A, ECO, KPC type 2) it was 16 µg/mL; in series [4] (BIDMC 20A, ECO, KPC type 3) it was 32 µg/mL.

`CN(C)c1ccc(O)c2c1C[C@H]1C[C@H]3[C@H](N(C)C)C(O)=C(C(N)=O)C(=O)[C@@]3(O)C(O)=C1C2=O` [MIN, minocycline]: in series [2], the serum concentrations result is “higher serum concentrations than tigecycline”. Further, in [2], the side effects result is on record as “generally favorable side-effect profile”. In addition, the MIC is 8 µg/mL in [3] (BIDMC 4, KPN, KPC type 3); 16 µg/mL in [3] (BIDMC 5, KPN, KPC type 3); 4 µg/mL in series [3] (BIDMC 10, KPN, KPC type 3); 4 µg/mL in series [3] (BIDMC 12A, KPN, KPC type 3); 2 µg/mL in [3] (BIDMC 18A, KPN, KPC type 2); 1 µg/mL in [4] (BIDMC 6, ECO, KPC type 2). The MIC came to 1 µg/mL in [4] (BIDMC 9, ECO, KPC type 2); 1 µg/mL in [4] (BIDMC 15, ECO, KPC type 2); 1 µg/mL in series [4] (BIDMC 17A, ECO, KPC type 2); 4 µg/mL in series [4] (BIDMC 20A, ECO, KPC type 3).

In the case of `Cc1nnc(SCC2=C(C(=O)O)N3C(=O)[C@@H](NC(=O)Cn4cnnn4)[C@H]3SC2)s1` [Cefazolin (CFZ), Cefazolin], the MIC with E. coli ATCC 25922 [6] turned out to be 2 µg/mL (≈ 4.4 µM); with P. mirabilis ATCC 702 it was 4 µg/mL (≈ 8.8 µM). Further, in the series on E. coli ATCC 25922 [7], the “quality control range (MIC)” value was 1 to 4 µg/mL.

For Gentamicin [Gentamicin (GEN)], the “cell morphology at the MIC” value in the series on E. coli ATCC 25922 [1] is on record as “blocked cell growth, but did not appreciably alter morphology”. Besides, in series [5], the “Non-susceptible strains (%)” value stood at 31.3%. The compound further registered a Non-susceptible strains n in [5] of 25. Further, the “DDM modal MICs” value in [3] (BIDMC 4, KPN, KPC type 3) is on record as 32 mg/L; in series [3] (BIDMC 5, KPN, KPC type 3), 32 mg/L; in series [3] (BIDMC 10, KPN, KPC type 3), 32 mg/L; in [3] (BIDMC 12A, KPN, KPC type 3), 1 mg/L; in [3] (BIDMC 18A, KPN, KPC type 2) it was 64 mg/L; in series [4] (BIDMC 6, ECO, KPC type 2), greater than 32 mg/L. Also, the “DDM modal MICs” value is reported as greater than 32 mg/L in series [4] (BIDMC 9, ECO, KPC type 2); 64 mg/L in series [4] (BIDMC 15, ECO, KPC type 2); greater than 32 mg/L in [4] (BIDMC 17A, ECO, KPC type 2); 0.5 mg/L in [4] (BIDMC 20A, ECO, KPC type 3).

As for `CN(C)[C@@H]1C(O)=C(C(N)=O)C(=O)[C@@]2(O)C(O)=C3C(=O)c4c(O)cccc4[C@@](C)(O)[C@H]3C[C@@H]12` [Tetracycline (TET), Tetracycline], in [5], the “Non-susceptible strains (%)” value is 42.5% and the Non-susceptible strains n turned out to be 34.

These data come from patent US20230304064A1, “AUTOMATED, DIGITAL DISPENSING PLATFORM FOR MICRODILUTION ANTIMICROBIAL SUSCEPTIBILITY TESTING” (priority 2016, published 2023).
